For series [1] the following is noted: rcm bond.
The target in series [2] is HIS-Keap1 full length / Biotin-Nrf2 (16-mer) (Homo sapiens, UniProt Q14145). Kind of series: biochemical.
Series [3] deals with genes of interest (GOI) in HUDEP cells. Description: Gene expression by qPCR in HUDEP cells treated with compound titration. The format is cell-based. As to conditions: HbG, read-out: HUDEP HbG EC50 (μM) (Num). How it is done:
Evaluation of the gene expression by qPCR in HUDEP cells treated with titration of novel compounds. HUDEP Compound Treatment Method
HUDEP cells were plated in 96-well plates, @ 25,000 cells per well in 200 μL of maintenance media. Compounds were added in a 10-point dose response starting at 10 uM with 1/3 dilution scheme using the HP digital diluter. A DMSO control was run to all for normalization of DMSO. The compounds were incubated for 48 hours in 37° C. incubator with 5% CO2. Post incubation, total RNA was isolated using Cells to Ct kit and gene expression was evaluated for genes of interest (GOI) after normalizing to a housekeeping gene. The ΔΔCT was calculated and compared to the DMSO control.
Cell Lysis, Isolation and Gene Expression Materials
Cells to Ct is a kit offered by Applied Biosystems. mRNA prepared using this kit can be directly used for cDNA conversion followed subsequently with qPCR for gene expression analysis
Cell lysis and preparation of RNA: For suspension cells such as HUDEPs, 10,000-100,000 cells (as per kit guidelines) were used for making lysates. The plate was centrifuged at 1500 rpm for 5 mins and the cells were pelleted. Spent medium was removed using a multi-channel pipette. 200 μL ice-cold PBS was added to all treated wells, followed by centrifuging at 1500 rpm for 5 mins 195 μL cold PBS were aspirated from all treatment wells without disturbing the cell monolayer.
To prepare the Cells to CT lysis solution, 49.5 μL of the Cells to CT Lysis Buffer and 0.5 μL/well DNase I (returned DNase I reagent to the −20 C freezer immediately after pipetting) were added to each well. The Cells to CT lysis solution was pipetted to a reservoir and 50 μL were added per well to the treated wells. (Mix 35 μL 5 times without creating bubbles and set timer to 5 mins. At the end of the 5-minute incubation, add 5 μL of stop solution with a multichannel pipet touching the tip to the liquid. Then mix 35 μL 5 times without creating bubbles and set timer to 2 mins.)
The plates were sealed and stored at −20° C. until cDNA synthesis. Optionally they were placed on ice to allow for directly moving to the cDNA synthesis.
cDNA Synthesis: The cell lysate plates were thawed on ice if necessary and mixed 4 times with a multi-channel pipette. 4 μL of Superscript IV VILO and 6 μL of Nuclease free water were combined together for each sample. The mixture was poured into a reservoir and 10 μL was pipetted into each well of a 96-well PCR plate. 10 μL of lysate prepared previously was added and mixed 5 times. The wells were completely sealed, especially around the edges, with plate sealing film using the plate sealing paddle. The PCR plate was centrifuged to pull down the sample to the bottom of the wells. The lysate plate was sealed and returned to the −20° C. freezer as soon as possible. The PCR plate was placed in the thermal cycler and run at 20 μL at 25° C. for 10 minutes, 50° C. for 10 minutes, 85° C. for 5 minutes and then 4° C.
Real Time PCR: The cDNA plate was thawed at room temperature when necessary and 30 μL nuclease free water was added to each cell lysate, followed by mixing, up and down 4 times with a pipette. The primers were thawed for the genes of interest—both housekeeping gene (HKG) and gene(s) of interest (GOI).
A template was prepared and the number of wells needed for each gene of interest (GOI) calculated. Each sample required 2 μL of cDNA, 5 μL of Taqman Master Mix, 0.16667 μL of GOI at 60 times concentration, 0.16667 μL of HKG at 60 times concentration and 2.6667 μL of nuclease free water. If genes at 20 times concentration were used, then 2 μL cDNA, 5 μL Taqman Master Mix, 0.5 GOI, 0.5 μL HKG and 2 μL of nuclease free water were combined for each well.
After calculating the number of wells for each gene, GOI, HKG, Taqman Master Mix and Nuclease free water were combined. 8 μL were pipetted in to each well of the 384-well PCR plate as detailed in the template. […]
Background: In qPCR the cycle at which signal appears reflects the starting amount.

Series [4] relates to NQO1 activation in BEAS-2B cells. Kind of series: BEAS-2B cellular MTT assay of NQO1 activation, 0% HSA. The series is classed as cell-based. In outline:
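For the 0% HSA condition, cells were seeded into collagen plates in HSA-free medium. Culture was BEAS-2B in BEBM plus BEGM SingleQuots lacking GA-1000, held under 70% confluence, at a seeding density reaching 95-100% confluence by 48 h.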
A general note: Tetrazolium dyes change colour on reduction, which living cells bring about.

Series [5] shares this test system. Description: BEAS-2B cellular MTT assay of NQO1 activation, 0.3% HSA. The series is classed as cell-based. In outline: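 MTT read-out in BEAS-2B cells grown in BEBM with SingleQuots, no GA-1000, kept below 70% confluence; plates coated with collagen, with 0.3% or 0% HSA medium, seeded to 95-100% confluency at 48 h, 37 °C, 5% CO2.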
The conditions of series [6]: the molecule shown is the open-chain precursor.
The mark [7] stands for this setting: Homo sapiens, serum free, read-out: BEAS EC50 (nM) serum free.
The mark [8] stands for this setting: serum free, read-out: BEAS EC50 (nM) serum free.
Where [9] appears, read: BEAS+ W, read-out: BEAS+ W EC50.
[10] abbreviates: Homo sapiens, BEAS+ W, read-out: BEAS+ W EC50.
The mark [11] stands for this setting: Homo sapiens, BEAS+, read-out: BEAS+ EC50.
The mark [12] stands for this setting: rcm bond, 22-membered ring, Grubbs catalyst (General procedure 7).

“And” between values parts separate entries of the source, which are not always exact repeats. Equal entries are not always repeated. Where two headings read alike, the source gives them in different places.

Sequence of HIS-Keap1 full length / Biotin-Nrf2 (16-mer) (Q14145 whole entry): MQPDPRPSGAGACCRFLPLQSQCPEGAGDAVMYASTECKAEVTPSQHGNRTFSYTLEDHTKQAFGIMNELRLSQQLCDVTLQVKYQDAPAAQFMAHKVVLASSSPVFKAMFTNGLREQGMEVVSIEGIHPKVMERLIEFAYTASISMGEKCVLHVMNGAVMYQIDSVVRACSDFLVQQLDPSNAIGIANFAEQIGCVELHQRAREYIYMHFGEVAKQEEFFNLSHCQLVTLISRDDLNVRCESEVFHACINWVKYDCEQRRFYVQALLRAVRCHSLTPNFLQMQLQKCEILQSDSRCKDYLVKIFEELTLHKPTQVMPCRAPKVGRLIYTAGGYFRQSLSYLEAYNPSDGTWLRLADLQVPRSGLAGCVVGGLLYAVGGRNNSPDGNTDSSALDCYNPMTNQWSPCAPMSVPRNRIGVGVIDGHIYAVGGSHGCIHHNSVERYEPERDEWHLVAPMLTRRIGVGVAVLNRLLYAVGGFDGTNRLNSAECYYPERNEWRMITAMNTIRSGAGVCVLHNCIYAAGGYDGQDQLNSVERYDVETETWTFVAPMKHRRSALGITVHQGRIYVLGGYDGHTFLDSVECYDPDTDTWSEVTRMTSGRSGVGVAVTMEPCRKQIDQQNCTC

Regarding `COC(=O)CC1c2ccc3c(c2)CN(CC3)C(=O)c2ccc(cc2)C=CCCCOc2cc(C)c1cn2` (centres unmarked), the ring closure, yield of all isomers in series [1] (from C=CCCCOc1cc(C)c(C(CC(=O)OC)c2ccc3c(c2)CN(C(=O)c2ccc(C=C)cc2)CC3)cn1, Grubbs catalyst) turned out to be 64%.
For `COC(=O)C[C@@H]1c2ccc3c(c2)CN(CC3)C(=O)c2ccc(cc2)C=CCCCCn2cnc3c(C)c1ccc32`, in series [1] (from C=CCCCCn1cnc2c(C)c([C@H](CC(=O)OC)c3ccc4c(c3)CN(C(=O)c3ccc(C=C)cc3)CC4)ccc21, Grubbs 2nd generation catalyst, 48.0 h), the ring closure, yield of all isomers came to 27%.
Regarding `Cc1c2ccc3c1nnn3CCCCCCc1ccc(cc1)C(=O)N1CCc3ccc(cc3C1)[C@@H]2CC(=O)O` (single isomer, unassigned) [Compound 223], the IC50 in series [2] was 0.5 nM and 0.9 nM and 1.2 nM (2×). For the same compound, the EC50 in series [3] turned out to be 0.015 µM.
As to `Cc1c2ccc3c1nnn3CCCCCCOc1ccc(cc1)C(=O)N1CCc3ccc(cc3C1)[C@@H]2[C@@H](C)C(=O)O` [Compound 107], the EC50 in series [4] (Homo sapiens, Serum Free W, read-out: BEAS EC50 (nM) Serum Free W) worked out at 3.6 nM; in series [4] (setting [7]) it was 0.6 nM; in series [4] (Serum Free W, read-out: BEAS EC50 (nM) Serum Free W), 4.1 nM; in series [4] (setting [8]) it was 0.4 nM; in series [3], 0.038 µM; in series [5] (setting [9]), 32.7 nM. Further, the EC50 in series [5] (BEAS+, read-out: BEAS+ EC50) stood at 2.4 nM; in series [5] (setting [10]), 16.7 nM; in series [5] (setting [11]) it was 3.2 nM. For the same compound, in series [2], it took 1.6 nM to reach half-maximal inhibition (IC50).
`Cc1c2ccc3c1nnn3CCCCCCc1ccc(cc1)C(=O)N1CCc3ccc(cc3C1)[C@H]2[C@@H](C)C(=O)O` [Compound 129]: the EC50 in series [4] (setting [7]) is 1360 nM; in series [4] (setting [8]) it was 1220 nM; in series [3] it was 0.013 µM; in series [5] (setting [9]), 2.2 nM and 1.6 nM and 1.9 nM; in series [5] (BEAS+, read-out: BEAS+ EC50), 3080 nM; in series [5] (setting [10]), 2 nM. Besides, in series [5] (setting [11]), the EC50 was 2190 nM.
Take `Cc1cc2ccc1C(=O)N1CCc3ccc(cc3C1)[C@@H](CC(=O)O)c1ccc3c(nnn3CCCCCC2)c1C` [Compound 240]: the EC50 in series [4] (setting [7]) worked out at 1.1 nM; in series [4] (setting [8]) it was 0.6 nM; in series [3], 0.018 µM; in series [5] (BEAS+, read-out: BEAS+ EC50) it was 0.6 nM; in series [5] (setting [11]), 1 nM.
The compound `O=C(O)CC1c2ccc3c(c2)CN(CC3)C(=O)c2c(F)cc(cc2F)CCCCCn2nnc3cc1ccc32` (centres unmarked) [Compound 241] came in with an IC50 in series [2] of 0.4 nM. For the same compound, in series [3], the EC50 was 0.095 µM.
Regarding `O=C(O)CC1c2ccc3c(c2)CN(CC3)C(=O)c2ccc(c3ccccc23)OCCCCCCn2nnc3cc1ccc32` (centres unmarked) [Compound 338], the EC50 in series [4] (setting [7]) was 25.3 nM; in series [3], 0.667 µM; in series [5] (setting [11]), 27.5 nM. The IC50 in series [2] was 0.2 nM and 0.1 nM.
`Cc1cc2ccc1C(=O)N1CCc3ccc(cc3C1)[C@@H](CC(=O)O)c1ccc3c(nnn3CCC/C=C/C2)c1C` [Compound 392]: the EC50 in series [4] (setting [7]) stood at 10.6 nM; in series [4] (setting [8]), 10.3 nM; in series [5] (BEAS+, read-out: BEAS+ EC50), 15.5 nM; in series [5] (setting [11]), 13.7 nM. This compound came in with an IC50 in series [2] of 0.5 nM.
As to `Cc1c2ccc3c1nnn3CCCCCn1ccc3ccc(cc31)C(=O)N1CCc3ccc(cc3C1)C2CC(=O)O` (centres unmarked) [Compound 393], the EC50 in series [4] (setting [7]) stood at 2450 nM; in series [4] (setting [8]), 2110 nM; in series [5] (BEAS+, read-out: BEAS+ EC50) it was 2250 nM; in series [5] (setting [11]), 1890 nM. Also, the IC50 in series [2] was 3.8 nM and 4.3 nM.
For `Cc1c2ccc3c1nnn3CCCCCCn1ccc3ccc(cc31)C(=O)N1CCc3ccc(cc3C1)C2CC(=O)O` (centres unmarked) [Compound 394], the EC50 in series [4] (setting [7]) is 3100 nM; in series [4] (setting [8]), 2900 nM; in series [5] (BEAS+, read-out: BEAS+ EC50), 2860 nM; in series [5] (setting [11]) it was 2690 nM. Further, the IC50 in series [2] was 9 nM and 10.4 nM.
Regarding `O=C(O)CC1c2ccc(cc2)OCCCCCc2ccc(cc2)C(=O)N2CCc3ccc1cc3C2` (centres unmarked) [Compound 396], the EC50 in series [4] (setting [7]) stood at 80.5 nM; in series [4] (setting [8]), 78.2 nM; in series [5] (BEAS+, read-out: BEAS+ EC50), 176 nM; in series [5] (setting [11]) it was 204 nM. The IC50 in series [2] is 94.7 nM and 138 nM.
In the case of `O=C(O)CC1c2ccc3c(c2)CN(CC3)C(=O)c2ccc3c(ccn3CCCCCCn3nnc4cc1ccc43)c2` (centres unmarked) [Compound 397], the EC50 was determined as 597 nM in series [4] (setting [7]); 659 nM in series [4] (setting [8]); 2150 nM in series [5] (BEAS+, read-out: BEAS+ EC50); 1520 nM in series [5] (setting [11]). The IC50 in series [2] was 13.9 nM and 14.8 nM.
Take `O=C(O)CC1c2ccc(cc2)OCCCCCOc2ccc(cc2)C(=O)N2CCc3ccc1cc3C2` (centres unmarked) [Compound 399]: the EC50 was determined as 479 nM in series [4] (setting [7]); 407 nM in series [4] (setting [8]); 2000 nM in series [5] (BEAS+, read-out: BEAS+ EC50); 1980 nM in series [5] (setting [11]). In addition, the IC50 in series [2] is > 1000 nM and 335 nM.
In the case of “amide of methyl 3-(1-(but-3-en-1-yl)-1H-benzo[d][1,2,3]triazol-5-yl)-3-(1,2,3,4-tetrahydroisoquinolin-7-yl)propanoate with 4-(allyloxy)benzoic acid”, in series [6] (setting [12]), the ring closure, isolated yield turned out to be 47%.
Turning to “amide of methyl 3-(4-methyl-1-(pent-4-en-1-yl)-1H-benzo[d][1,2,3]triazol-5-yl)-3-(1,2,3,4-tetrahydroisoquinolin-7-yl)propanoate with 1-methyl-5-vinyl-1H-indole-3-carboxylic acid”, the ring closure, isolated yield in series [6] (rcm bond, 21-membered ring, Grubbs catalyst (General procedure 7)) is 65%.
In series [6] (rcm bond, 21-membered ring, Grubbs catalyst (General procedure 15)), “amide of methyl 3-(4-methyl-6-(pent-4-en-1-yloxy)pyridin-3-yl)-3-(1,2,3,4-tetrahydroisoquinolin-7-yl)propanoate with 4-vinylbenzoic acid” registered a ring closure, isolated yield of 64%.
Compound “amide of rel-methyl (R)-3-(1-(hex-5-en-1-yl)-4-methyl-1H-benzo[d]imidazol-5-yl)-3-(1,2,3,4-tetrahydroisoquinolin-7-yl)propanoate with 4-vinylbenzoic acid” gave a ring closure, isolated yield in series [6] (rcm bond, 22-membered ring, Grubbs II (extra portion)) of 27%.
In series [6] (setting [12]), “amide of rel-methyl (S)-3-(4-methyl-1-(pent-4-en-1-yl)-1H-benzo[d][1,2,3]triazol-5-yl)-3-(1,2,3,4-tetrahydroisoquinolin-7-yl)propanoate with 4-allylbenzoic acid” registered a ring closure, isolated yield of 99%.
“free amino acid (NH tetrahydroisoquinoline, CO2H benzoic acid) from deprotection of Mitsunobu di-ether of tert-butyl 7-(3-(benzyloxy)-1-(1-(3-(2-hydroxyethoxy)propyl)-4-methyl-1H-benzo[d][1,2,3]triazol-5-yl)-3-oxopropyl)-3,4-dihydroisoquinoline-2(1H)-carboxylate with tert-butyl 2,6-difluoro-4-hydroxybenzoate” came in with a ring closure, isolated yield in series [6] (amide bond, 23-membered ring, HATU/Et3N) of 30%.

Broadly, the IC50 is the midpoint of a concentration-inhibition curve. Low values mean higher potency, high ones lower potency. For orientation: EC50 means the concentration giving half of the maximal effect.
